Like-named read-outs stand apart in the source and are kept apart here.
How the values were obtained:
[1] = system: cucumber downy mildew; test: Indoor comparison with currently available antimicrobial agents, therapeutic effect (Example 12); type: in vivo, Pseudoperonospora cubensis; details: seedling of yellow melon
[2] = system: cucumber downy mildew; test: Indoor comparison with currently available antimicrobial agents, protective effect (Example 12); type: in vivo, Pseudoperonospora cubensis; details: seedling of yellow melon
[3] = system: cucumber downy mildew (Pseudoperonospora cubensis); test: Test for inhibition of spore germination in cucumber downy mildew; type: cell-based
[4] = system: cucumber downy mildew; test: Indoor protection test against cucumber downy mildew (Example 10); details: inoculated 24 hours after treatment, examined a week later
Experimental: (§1) Concentration of test Compound 1 (content was 9% in emulsion oil) was set at 250, 200, 150, 100 and 75 ppm. Dimethomorph (American Cyanamid) 150 ppm was used as the control. Healthy seedling of yellow melon was selected for use, and test was run three times. For protection test, treatment was carried out on September 17, 1995, and they were inoculated 24 hours later. For the therapeutic test, inoculation was made on September 18, and then they were treated 24 hours later. Examination was made a week later, and results were recorded in 9 grades, and disease index and protection effect were calculated.

[5] = system: cucumber downy mildew; test: Field therapeutic test against cucumber downy mildew (Example 14); type: in vivo, Pseudoperonospora cubensis; details: three treatments, examined on June 3
Experimental: Therapeutic effect (field test).
Field therapeutic test of the compound 1 against cucumber downy mildew was carried out in a farm at a village near Shenyang City.
Concentration of the Compound 1 (20% wettable powder) was set at 100, 200 and 300 ppm. Chlor 1500 ppm was used as the control, and blank control was set separately also. Each treatment was repeated three times. First treatment was made on May 13, second treatment was made on May 20, and third treatment was made on May 27, and protective effect was examined on June 3.

[6] = system: cucumber downy mildew; test: Indoor therapeutic test against cucumber downy mildew (Example 10); details: treated 24 hours after inoculation, examined a week later
Experimental: as §1

[7] = system: Downy mildew; test: Indoor comparison with Dimethomorph, test for protection (Example 11); details: seedling of yellow melon, 2 - 3 leaf stage
Text: (§2) Test was divided into test for therapy and test for protection. Concentration of two chemicals (Compound 1 and Dimethomorph) was set at 150 and 100 ppm, and each treatment was run three times. A blank control was set separately. Samples were selected from seedling of yellow melon in the 2 - 3 leaf stage. Method of treatment and study was the same as before.

[8] = system: late blight of tomato; type: in vivo; details: three treatments, examined on June 20, field
[9] = system: Downy mildew; test: Indoor comparison with Dimethomorph, test for therapy (Example 11); details: seedling of yellow melon, 2 - 3 leaf stage
Text: as §2

[10] = system: cucumber downy mildew; test: Field protection test against cucumber downy mildew (Example 13); type: in vivo, Pseudoperonospora cubensis; set-up: Disease index: scale not given here
Experimental: Protective action (field test).
Field protection test against cucumber downy mildew was carried out in the farm at a village near Shenyang City. Concentration of the Compound 1 (20% wettable powder) was set at 200, 400 and 600 ppm. Concentration of Previcur (66.5% hydrate ) which was used as the control, was set at 800, 1000 and 1200 ppm. And, a blank control was set separately also. Each treatment was run 4 times. Samples were taken for examination. […] First examination of protective effect was made on April 22. The second examination of protective effect was made on April 29, and the third examinatnion of protective effect was made on May 5.

[11] = Pseudoperonospora cubensis, 24 h, read-out: % Inhibition of spore

What does the source list for `[Al]#[P]` [Aluminium phosphide, aluminium phosphide, reference compound]?
Therapeutic effect (%)control ([1]; 1000 ppm): 40.0%; Protective effect/preventive (%)control ([2]; 1000 ppm): 75.0%

How did the “% Spore germination” value ([3]; 25 ppm, 25°C, after 24 hours) turn out when `COc1ccc(/C(=C\C(=O)N2CCOCC2)c2ccc(F)cc2)cc1OC` [Compound 1] was run?
Its value is 23.1%.

What about the “Number of spores germinated” value ([3]; 25 ppm, 25°C, after 24 hours) of the same molecule?
Its value is 198.

And the “Number of ungerminated spores” value ([3]; 25 ppm, 25°C, after 24 hours)?
Its value is 660.

And the “% Spore germination” value ([3]; 50 ppm, 25°C, after 24 hours)?
The value was 4.3%.

And the “Number of spores germinated” value ([3]; 50 ppm, 25°C, after 24 hours)?
Its value is 45.

And the “Number of ungerminated spores” value ([3]; 50 ppm, 25°C, after 24 hours)?
The value was 990.

And the “% Spore germination” value ([3]; 100 ppm, 25°C, after 24 hours)?
The value was 1.6%.

And the “Number of spores germinated” value ([3]; 100 ppm, 25°C, after 24 hours)?
Its value is 17.

What about the “Number of ungerminated spores” value ([3]; 100 ppm, 25°C, after 24 hours) of the same molecule?
The value was 1044.

And the inhibition at 25 ppm [3, 11]?
The inhibition at 25 ppm was 65.2%.

And the inhibition at 50 ppm [3, 11]?
Its inhibition at 50 ppm is 93.5%.

And the inhibition at 100 ppm [3, 11]?
Its inhibition at 100 ppm is 97.6%.

What about the “Protection (%)control” value ([4]; 75 ppm) of the same molecule?
Its value is 92.5%.

And the “Protection Disease index” value ([4]; 75 ppm)?
The value was 0.03.

And the “Protection (%)control” value ([4]; 100 ppm)?
The value was 100%.

And the “Protection Disease index” value ([4]; 100 ppm)?
Its value is 0.

And the “Protection (%)control” value ([4]; 150 ppm)?
The value was 100%.

And the “Protection Disease index” value ([4]; 150 ppm)?
The value was 0.

What about the “Protection (%)control” value ([4]; 200 ppm) of the same molecule?
The value was 100%.

What about the “Protection Disease index” value ([4]; 200 ppm) of the same molecule?
Its value is 0.

What about the “Protection (%)control” value ([4]; 250 ppm) of the same molecule?
The value was 100%.

And the “Protection Disease index” value ([4]; 250 ppm)?
The value was 0.

What about the Disease index ([5]; 100 ppm) of the same molecule?
Its Disease index is 0.049.

What about the “Protective effect (%)control” value ([5]; 100 ppm) of the same molecule?
The value was 88.4%.

And the Disease index ([5]; 200 ppm)?
Its Disease index is 0.011.

What about the “Protective effect (%)control” value ([5]; 200 ppm) of the same molecule?
Its value is 97.4%.

What about the Disease index ([5]; 300 ppm) of the same molecule?
The Disease index was 0.

And the “Protective effect (%)control” value ([5]; 300 ppm)?
Its value is 100%.

What about the “Therapeutic effect (%)control” value ([1]; 25 ppm) of the same molecule?
Its value is 0.0%.

What about the “Therapeutic effect (%)control” value ([1]; 50 ppm) of the same molecule?
Its value is 40.0%.

What about the “Therapeutic effect (%)control” value ([1]; 75 ppm) of the same molecule?
The value was 60.0%.

And the “Therapeutic effect (%)control” value ([1]; 100 ppm)?
The value was 75.0%.

And the “Therapeutic effect (%)control” value ([1]; 200 ppm)?
Its value is 90.0%.

And the “Therapeutic (%)control” value ([6]; 75 ppm)?
The value was 78.8%.

And the “Therapeutic Disease index” value ([6]; 75 ppm)?
Its value is 0.11.

What about the “Therapeutic (%)control” value ([6]; 100 ppm) of the same molecule?
The value was 84.6%.

What about the “Therapeutic Disease index” value ([6]; 100 ppm) of the same molecule?
Its value is 0.08.

What about the “Therapeutic (%)control” value ([6]; 150 ppm) of the same molecule?
The value was 100%.

And the “Therapeutic Disease index” value ([6]; 150 ppm)?
The value was 0.

And the “Therapeutic (%)control” value ([6]; 200 ppm)?
The value was 98.1%.

What about the “Therapeutic Disease index” value ([6]; 200 ppm) of the same molecule?
The value was 0.01.

What about the “Therapeutic (%)control” value ([6]; 250 ppm) of the same molecule?
Its value is 100%.

What about the “Therapeutic Disease index” value ([6]; 250 ppm) of the same molecule?
Its value is 0.

What about the “Protective effect (%)control” value ([7]; 100 ppm) of the same molecule?
Its value is 93%.

And the “Protective effect Disease index” value ([7]; 100 ppm)?
Its value is 0.07.

What about the “Protective effect (%)control” value ([7]; 150 ppm) of the same molecule?
Its value is 95%.

What about the “Protective effect Disease index” value ([7]; 150 ppm) of the same molecule?
The value was 0.05.

And the Disease index ([8]; 200 ppm)?
Its Disease index is 5.56.

And the “Protective (%)control” value ([8]; 200 ppm)?
Its value is 80.9%.

What about the Disease index ([8]; 400 ppm) of the same molecule?
The Disease index was 2.59.

And the “Protective (%)control” value ([8]; 400 ppm)?
The value was 91.1%.

What about the Disease index ([8]; 600 ppm) of the same molecule?
Its Disease index is 2.22.

And the “Protective (%)control” value ([8]; 600 ppm)?
The value was 94.9%.

What about the “Therapeutic effect (%)control” value ([9]; 100 ppm) of the same molecule?
The value was 63%.

What about the “Therapeutic effect Disease index” value ([9]; 100 ppm) of the same molecule?
The value was 0.37.

And the “Therapeutic effect (%)control” value ([9]; 150 ppm)?
Its value is 74%.

What about the “Therapeutic effect Disease index” value ([9]; 150 ppm) of the same molecule?
Its value is 0.26.

What about the Disease index ([10]; 200 ppm, April 22) of the same molecule?
Its Disease index is 0.

What about the “Protective (%)control” value ([10]; 200 ppm, April 22) of the same molecule?
Its value is 100%.

What about the Disease index ([10]; 200 ppm, April 29) of the same molecule?
Its Disease index is 0.

And the “Protective (%)control” value ([10]; 200 ppm, April 29)?
Its value is 100%.

And the Disease index ([10]; 200 ppm, May 5)?
Its Disease index is 0.03.

What about the “Protective (%)control” value ([10]; 200 ppm, May 5) of the same molecule?
Its value is 97.0%.

And the Disease index ([10]; 400 ppm, April 22)?
Its Disease index is 0.

What about the “Protective (%)control” value ([10]; 400 ppm, April 22) of the same molecule?
Its value is 100%.

What about the Disease index ([10]; 400 ppm, April 29) of the same molecule?
Its Disease index is 0.

And the “Protective (%)control” value ([10]; 400 ppm, April 29)?
The value was 100%.

And the Disease index ([10]; 400 ppm, May 5)?
Its Disease index is 0.

And the “Protective (%)control” value ([10]; 400 ppm, May 5)?
Its value is 100%.

What about the Disease index ([10]; 600 ppm, April 22) of the same molecule?
Its Disease index is 0.

What about the “Protective (%)control” value ([10]; 600 ppm, April 22) of the same molecule?
The value was 100%.

What about the Disease index ([10]; 600 ppm, April 29) of the same molecule?
The Disease index was 0.

What about the “Protective (%)control” value ([10]; 600 ppm, April 29) of the same molecule?
The value was 100%.

What about the Disease index ([10]; 600 ppm, May 5) of the same molecule?
Its Disease index is 0.

And the “Protective (%)control” value ([10]; 600 ppm, May 5)?
Its value is 100%.

What about the “Protective effect/preventive (%)control” value ([2]; 25 ppm) of the same molecule?
The value was 40.0%.

What about the “Protective effect/preventive (%)control” value ([2]; 50 ppm) of the same molecule?
Its value is 60.0%.

And the “Protective effect/preventive (%)control” value ([2]; 75 ppm)?
Its value is 75.0%.

And the “Protective effect/preventive (%)control” value ([2]; 100 ppm)?
Its value is 90.0%.

What about the “Protective effect/preventive (%)control” value ([2]; 200 ppm) of the same molecule?
The value was 100.0%.

How did the “Therapeutic effect (%)control” value ([1]; 500 ppm) turn out when `COCC(=O)N(c1c(C)cccc1C)C(C)C(=O)OC` (stereo not drawn) [metalaxyl, reference compound] was run?
Its value is 40.0%.

What about the “Protective effect/preventive (%)control” value ([2]; 500 ppm) of the same molecule?
The value was 60.0%.

Which “% Spore germination” value ([3]; 50 ppm, 25°C, after 24 hours) does the source give for `COc1ccc(C(=CC(=O)N2CCOCC2)c2ccc(Cl)cc2)cc1OC` [Dimethomorph, reference compound] here?
The value was 38.2%.

What about the “Number of spores germinated” value ([3]; 50 ppm, 25°C, after 24 hours) of the same molecule?
Its value is 208.

What about the “Number of ungerminated spores” value ([3]; 50 ppm, 25°C, after 24 hours) of the same molecule?
Its value is 336.

What about the inhibition at 50 ppm ([3]; Pseudoperonospora cubensis, 50 ppm, 25°C, after 24 hours, read-out: % Inhibition of spore) of the same molecule?
The inhibition at 50 ppm was 42.5%.

And the “Protection (%)control” value ([4]; 150 ppm)?
The value was 100%.

What about the “Protection Disease index” value ([4]; 150 ppm) of the same molecule?
Its value is 0.

What about the “Therapeutic (%)control” value ([6]; 150 ppm) of the same molecule?
The value was 63.5%.

And the “Therapeutic Disease index” value ([6]; 150 ppm)?
The value was 0.19.

What about the “Protective effect (%)control” value ([7]; 100 ppm) of the same molecule?
The value was 61%.

What about the “Protective effect Disease index” value ([7]; 100 ppm) of the same molecule?
Its value is 0.39.

And the “Protective effect (%)control” value ([7]; 150 ppm)?
Its value is 79%.

What about the “Protective effect Disease index” value ([7]; 150 ppm) of the same molecule?
Its value is 0.21.

What about the “Therapeutic effect (%)control” value ([9]; 100 ppm) of the same molecule?
Its value is 2%.

What about the “Therapeutic effect Disease index” value ([9]; 100 ppm) of the same molecule?
The value was 0.98.

What about the “Therapeutic effect (%)control” value ([9]; 150 ppm) of the same molecule?
The value was 24%.

And the “Therapeutic effect Disease index” value ([9]; 150 ppm)?
The value was 0.76.

What does the source list for `N#Cc1c(Cl)c(Cl)c(Cl)c(C#N)c1Cl` [Chlorothalonil, reference compound]?
Therapeutic effect (%)control ([1]; 1000 ppm): 75.0%; Protective effect/preventive (%)control ([2]; 1000 ppm): 90.0%

From patent publication EP0860438B1, “Fluorine-containing diphenyl acrylamide antimicrobial agents” (Shenyang Research Institute of Chemical Industry, priority 1997, dated 1998)
